According to patent publication US9809573B2, “Substituted pyridine derivatives useful as GSK-3 inhibitors” (priority 2013, dated 2017):
Read-outs that look alike come from different tables or passages of the source.

Columns and labels:
GSK3β = GSK3β (Homo sapiens, UniProt P49841); experiment: GSK3β kinase assay (Caliper LabChip3000, fluoresceinated peptide substrate); format: biochemical
Method: (§1) The kinase assay was performed in V-bottom 384-well plates. […] The reaction was incubated at room temperature for 20 hours and terminated by adding 45 μl of 35 mM EDTA to each sample. The reaction mixture was analyzed on the Caliper LabChip3000 (Caliper, Hopkinton, Mass.) by electrophoretic separation of the unphosphorylated substrate and phosphorylated product. […] Compounds were dissolved at 10 mM in dimethylsulfoxide (DMSO) and evaluated at eleven concentrations. IC50 values were derived by non-linear regression analysis.

GSK3α = GSK3α (Homo sapiens, UniProt P49840); experiment: biochemical
GSK3α, sequence (P49840 whole entry, species assumed): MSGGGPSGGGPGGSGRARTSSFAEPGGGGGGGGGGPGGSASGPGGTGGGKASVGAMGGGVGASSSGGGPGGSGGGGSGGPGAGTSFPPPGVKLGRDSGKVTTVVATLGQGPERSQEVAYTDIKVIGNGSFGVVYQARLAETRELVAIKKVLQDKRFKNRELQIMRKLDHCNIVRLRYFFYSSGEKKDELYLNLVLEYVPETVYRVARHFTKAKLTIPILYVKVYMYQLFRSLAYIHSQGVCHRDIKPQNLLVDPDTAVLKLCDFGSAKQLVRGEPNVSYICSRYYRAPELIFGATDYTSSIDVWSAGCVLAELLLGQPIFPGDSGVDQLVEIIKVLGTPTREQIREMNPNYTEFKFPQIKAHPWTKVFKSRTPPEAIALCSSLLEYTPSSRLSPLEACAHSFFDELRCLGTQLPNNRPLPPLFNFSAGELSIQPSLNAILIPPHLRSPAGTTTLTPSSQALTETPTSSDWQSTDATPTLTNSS
Method: as §1

[1] = first value of the cell, 250 pM enzyme, 20 uM ATP, 20 hours at room temperature, read-out: GSK3β/α (nM): GSK3β IC50
[2] = second value of the cell, 250 pM enzyme, 20 uM ATP, 20 hours at room temperature, read-out: GSK3β/α (nM): GSK3α IC50

GSK3β, sequence (P49841 whole entry, species assumed): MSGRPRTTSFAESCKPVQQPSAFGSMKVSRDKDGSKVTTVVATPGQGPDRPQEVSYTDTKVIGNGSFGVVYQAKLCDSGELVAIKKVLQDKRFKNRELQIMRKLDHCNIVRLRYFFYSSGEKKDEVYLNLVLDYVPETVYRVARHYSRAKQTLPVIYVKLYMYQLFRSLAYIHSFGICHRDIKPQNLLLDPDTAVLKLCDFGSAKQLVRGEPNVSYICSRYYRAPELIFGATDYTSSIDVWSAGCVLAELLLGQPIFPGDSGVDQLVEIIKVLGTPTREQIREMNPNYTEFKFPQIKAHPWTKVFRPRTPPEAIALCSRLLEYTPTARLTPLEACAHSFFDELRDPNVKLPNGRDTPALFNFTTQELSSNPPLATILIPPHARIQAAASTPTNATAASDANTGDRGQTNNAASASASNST

| Compound | IC50 (GSK3β; [1]) [nM] | IC50 (GSK3α; [2]) [nM] | IC50 (GSK3β) [nM] | IC50 (GSK3α) [nM] |
| --- | --- | --- | --- | --- |
| 2-((1,3-Cis)-3-chlorocyclobutanecarboxamido)-N-(4-phenylpyridin-3-yl)isonicotinamide [Example 221] | 0.16 | 0.09 |  |  |
| 2-((1,3-Trans)-3-chlorocyclobutanecarboxamido)-N-(4-phenylpyridin-3-yl)isonicotinamide [Example 220] | 0.37 | 0.22 |  |  |
| O=C(Nc1cncc2c1CCCC2)c1ccnc(NC(=O)C2CC2)c1 [Example 21, 2-(Cyclopropanecarboxamido)-N-(5,6,7,8-tetrahydroisoquinolin-4-yl)isonicotinamide] | 13 | 3.3 |  |  |
| O=C(Nc1cnccc1-c1ccc(C(F)(F)F)cc1C(F)(F)F)c1ccnc(NC(=O)C2CC2)c1 [Example 65, N-(4-(2,4-bis(trifluoromethyl)phenyl)pyridin-3-yl)-2-(cyclopropanecarboxamido)isonicotinamide] | 29 | 25 |  |  |
| N#Cc1cc(F)ccc1-c1ccncc1NC(=O)c1ccnc(NC(=O)C2CC2)c1 [Example 89, N-(4-(2-cyano-4-fluorophenyl)pyridin-3-yl)-2-(cyclopropanecarboxamido)isonicotinamide] | 470 | 190 |  |  |
| O=C(Nc1cncc(-c2ccsc2)c1)c1ccnc(NC(=O)C2CC2)c1 [Example 117, 2-(cyclopropanecarboxamido)-N-(5-(thiophen-3-yl)pyridin-3-yl)isonicotinamide] | 1.2 | 1.9 |  |  |
| O=C(Nc1cncc(-c2ccoc2)c1)c1ccnc(NC(=O)C2CC2)c1 [Example 121, 2-(cyclopropanecarboxamido)-N-(5-(furan-3-yl)pyridin-3-yl)isonicotinamide] | 2.4 | 0.99 |  |  |
| Cc1ccccc1-c1cncc(NC(=O)c2ccnc(NC(=O)C3CC3)c2)c1 [Example 122, 2-(cyclopropanecarboxamido)-N-(5-(o-tolyl)pyridin-3-yl)isonicotinamide] | 7.3 | 3.3 |  |  |
| O=C(Nc1cncc(-c2cccnc2)c1)c1ccnc(NC(=O)C2CC2)c1 [Example 125, N-([3,3′-bipyridin]-5-yl)-2-(cyclopropanecarboxamido)isonicotinamide] | 2 | 0.86 |  |  |
| O=C(Nc1cncc(-c2cccc(F)c2)c1)c1ccnc(NC(=O)C2CC2)c1 [Example 126, 2-(cyclopropanecarboxamido)-N-(5-(3-fluorophenyl)pyridin-3-yl)isonicotinamide] | 2.5 | 1.1 |  |  |
| O=C(Nc1cncc(-c2ccccc2Cl)c1)c1ccnc(NC(=O)C2CC2)c1 [Example 127, N-(5-(2-chlorophenyl)pyridin-3-yl)-2-(cyclopropanecarboxamido)isonicotinamide] | 1.3 | 0.54 |  |  |
| O=C(Nc1cncc(-c2ccccn2)c1)c1ccnc(NC(=O)C2CC2)c1 [Example 128, N-([2,3′-bipyridin]-5′-yl)-2-(cyclopropanecarboxamido)isonicotinamide] | 0.5 | 2.6 |  |  |
| O=C(Nc1cncc(-c2csc3ccccc23)c1)c1ccnc(NC(=O)C2CC2)c1 [Example 129] | 5.1 | 7 |  |  |
| Cc1cscc1-c1cncc(NC(=O)c2ccnc(NC(=O)C3CC3)c2)c1 [Example 130, 2-(cyclopropanecarboxamido)-N-(5-(4-methylthiophen-3-yl)pyridin-3-yl)isonicotinamide] | 2.5 | 0.41 |  |  |
| N#Cc1cscc1-c1cncc(NC(=O)c2ccnc(NC(=O)C3CC3)c2)c1 [Example 131, N-(5-(4-cyanothiophen-3-yl)pyridin-3-yl)-2-(cyclopropanecarboxamido)isonicotinamide] | 0.41 | 0.76 |  |  |
| O=C(Nc1cncc(C2CCCC2)c1)c1ccnc(NC(=O)C2CC2)c1 [Example 132, N-(5-cyclopentylpyridin-3-yl)-2-(cyclopropanecarboxamido)isonicotinamide] | 4.1 | 8 |  |  |
| O=C(Nc1cncc(-c2ccc(Cl)cc2)c1)c1ccnc(NC(=O)C2CC2)c1 [Example 133, N-(5-(4-chlorophenyl)pyridin-3-yl)-2-(cyclopropanecarboxamido)isonicotinamide] | 3.3 | 4.4 |  |  |
| CC(C)c1ccccc1-c1cncc(NC(=O)c2ccnc(NC(=O)C3CC3)c2)c1 [Example 134, 2-(cyclopropanecarboxamido)-N-(5-(2-isopropylphenyl)pyridin-3-yl)isonicotinamide] | 2.7 |  |  |  |
| Cc1cc(-c2cncc(NC(=O)c3ccnc(NC(=O)C4CC4)c3)c2)c(C)s1 [Example 135, 2-(cyclopropanecarboxamido)-N-(5-(2,5-dimethylthiophen-3-yl)pyridin-3-yl)isonicotinamide] | 2.7 |  |  |  |

| Compound | IC50 (GSK3β; [1]) [nM] | IC50 (GSK3α; [2]) [nM] | IC50 (GSK3β) [nM] | IC50 (GSK3α) [nM] |
| --- | --- | --- | --- | --- |
| CC(C)Oc1ccccc1-c1cncc(NC(=O)c2ccnc(NC(=O)C3CC3)c2)c1 [Example 136, 2-(cyclopropanecarboxamido)-N-(5-(2-isopropoxyphenyl)pyridin-3-yl)isonicotinamide] | 19 | 5.4 |  |  |
| O=C(Nc1cncc(-c2cccc(F)c2F)c1)c1ccnc(NC(=O)C2CC2)c1 [Example 137, 2-(cyclopropanecarboxamido)-N-(5-(2,3-difluorophenyl)pyridin-3-yl)isonicotinamide] |  |  | 3.4 | 0.74 |
| O=C(Nc1cncc(-c2cccc(Cl)c2Cl)c1)c1ccnc(NC(=O)C2CC2)c1 [Example 138, 2-(cyclopropanecarboxamido)-N-(5-(2,3-dichlorophenyl)pyridin-3-yl)isonicotinamide] | 10.5 | 1.8 |  |  |
| COc1cccc(-c2cncc(NC(=O)c3ccnc(NC(=O)C4CC4)c3)c2)c1F [Example 139, 2-(cyclopropanecarboxamido)-N-(5-(2-fluoro-3-methoxyphenyl)pyridin-3-yl)isonicotinamide] |  | 0.81 | 3.7 |  |
| O=C(Nc1cncc(-c2cccc(Cl)c2F)c1)c1ccnc(NC(=O)C2CC2)c1 [Example 140, N-(5-(3-chloro-2-fluorophenyl)pyridin-3-yl)-2-(cyclopropanecarboxamido)isonicotinamide] | 13 | 2.8 |  |  |
| O=C(Nc1cncc(-c2c(F)cccc2F)c1)c1ccnc(NC(=O)C2CC2)c1 [Example 141, 2-(cyclopropanecarboxamido)-N-(5-(2,6-difluorophenyl)pyridin-3-yl)isonicotinamide] | 21 | 4.3 |  |  |
| O=C(Nc1cncc(-c2cccc3cccnc23)c1)c1ccnc(NC(=O)C2CC2)c1 [Example 143, 2-(cyclopropanecarboxamido)-N-(5-(quinolin-8-yl)pyridin-3-yl)isonicotinamide] | 190 | 35 |  |  |
| CC(=O)c1ccccc1-c1cncc(NC(=O)c2ccnc(NC(=O)C3CC3)c2)c1 [Example 144, N-(5-(2-acetylphenyl)pyridin-3-yl)-2-(cyclopropanecarboxamido)isonicotinamide] | 55 | 15 |  |  |
| CCCOc1ccccc1-c1cncc(NC(=O)c2ccnc(NC(=O)C3CC3)c2)c1 [Example 146, 2-(cyclopropanecarboxamido)-N-(5-(2-propoxyphenyl)pyridin-3-yl)isonicotinamide] | 4.5 | 3.4 |  |  |
| O=C(Nc1cncc(-c2ccccc2OC(F)(F)F)c1)c1ccnc(NC(=O)C2CC2)c1 [Example 149, 2-(cyclopropanecarboxamido)-N-(5-(2-(trifluoromethoxy)phenyl)pyridin-3-yl)isonicotinamide] | 8.5 | 1.75 |  |  |
| O=C(Nc1cncc(C(F)(F)F)c1)c1ccnc(NC(=O)C2CC2)c1 [Example 150, 2-(cyclopropanecarboxamido)-N-(5-(trifluoromethyl)pyridin-3-yl)isonicotinamide] | 88 | 17 |  |  |
| Cn1cc(-c2cncc(NC(=O)c3ccnc(NC(=O)C4CC4)c3)c2)cn1 [Example 152, 2-(cyclopropanecarboxamido)-N-(5-(1-methyl-1H-pyrazol-4-yl)pyridin-3-yl)isonicotinamid] | 4.9 | 1.4 |  |  |
| O=C(Nc1cncc(-c2cc(Cl)ccc2F)c1)c1ccnc(NC(=O)C2CC2)c1 [Example 153, N-(5-(5-chloro-2-fluorophenyl)pyridin-3-yl)-2-(cyclopropanecarboxamido)isonicotinamide] | 5.3 | 1.6 |  |  |
| CN(C)c1ccccc1-c1cncc(NC(=O)c2ccnc(NC(=O)C3CC3)c2)c1 [Example 154, 2-(cyclopropanecarboxamido)-N-(5-(2-(dimethylamino)phenyl)pyridin-3-yl)isonicotinamide] | 40 | 18 |  |  |
| Cc1ncc(-c2cncc(NC(=O)c3ccnc(NC(=O)C4CC4)c3)c2)s1 [Example 159, 2-(cyclopropanecarboxamido)-N-(5-(2-methylthiazol-5-yl)pyridin-3-yl)isonicotinamide] | 4.7 | 1.9 |  |  |
| O=C(Nc1cnccc1-c1ccccc1)c1ccnc(NC(=O)C2CC(Cl)C2)c1 (stereo not shown) [Example 215, 2-(3-Cholorocyclobutanecarboxamido)-N-(4-phenylpyridin-3-yl)isonicotinamide] | 0.4 | 0.25 |  |  |
| O=C1CC(C(=O)Nc2cc(C(=O)Nc3cnccc3-c3ccccc3)ccn2)C1 [Example 218, 2-(3-Oxocyclobutanecarboxamido)-N-(4-phenylpyridin-3-yl)isonicotinamide] | 3.9 |  |  |  |
| O=C1CCC(C(=O)Nc2cc(C(=O)Nc3cnccc3-c3ccccc3)ccn2)C1 (stereo not shown) [Example 229, 2-(3-Oxocyclopentanecarboxamido)-N-(4-phenylpyridin-3-yl)isonicotinamide] | 1.6 |  |  |  |
